Experimental data: ChEMBL document CHEMBL4184264, “Heterobicyclic inhibitors of transforming growth factor beta receptor I (TGFβRI)” (Bioorg Med Chem, 2018)

How the values were obtained:
[1] = Metabolic stability in rat liver microsomes assessed as compound remaining by LC-MS/MS analysis; type: ADME, microsome
[2] = Metabolic stability in mouse liver microsomes assessed as compound remaining by LC-MS/MS analysis; type: ADME, microsome
[3] = Metabolic stability in human liver microsomes assessed as compound remaining by LC-MS/MS analysis; type: ADME, microsome
[4] = Inhibition of TGFbetaR1 in mink Mv1Lu cells assessed as TGFbeta-stimulated PSMAD2 phosphorylation preincubated for 1 hr followed by TGFbeta addition measured after 15 mins; type: cell-based, Neovison vison; details: Neogale vison
[5] = Solubility of the compound in DMSO; type: physicochemical
TGF-beta receptor type-2 = TGF-beta receptor type-2 (Homo sapiens, UniProt P37173); assay: Inhibition of wild type His-tagged TGFbetaR2 (unknown origin) after 1 hr by HTRF assay
TGF-beta receptor type-2, sequence (P37173 whole entry): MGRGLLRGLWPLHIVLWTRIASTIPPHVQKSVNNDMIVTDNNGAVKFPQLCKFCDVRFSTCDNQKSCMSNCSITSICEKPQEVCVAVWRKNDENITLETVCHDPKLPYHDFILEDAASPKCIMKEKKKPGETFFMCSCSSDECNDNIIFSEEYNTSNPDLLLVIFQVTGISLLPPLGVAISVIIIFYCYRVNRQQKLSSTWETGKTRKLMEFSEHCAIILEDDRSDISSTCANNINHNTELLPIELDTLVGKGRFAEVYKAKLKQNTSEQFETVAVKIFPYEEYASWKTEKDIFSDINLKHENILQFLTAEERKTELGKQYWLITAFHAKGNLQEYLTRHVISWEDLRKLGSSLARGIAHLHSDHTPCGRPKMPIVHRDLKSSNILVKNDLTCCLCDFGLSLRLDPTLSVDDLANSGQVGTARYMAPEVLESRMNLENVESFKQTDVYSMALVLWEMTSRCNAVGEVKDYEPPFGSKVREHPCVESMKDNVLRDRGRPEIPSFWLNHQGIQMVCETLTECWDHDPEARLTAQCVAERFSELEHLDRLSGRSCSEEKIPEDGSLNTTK

Mus musculus = assay: In vivo inhibition of TGFbetaR1 in po dosed BALB/c mouse implanted with mouse 4T1 cells assessed as reduction in phosphorylated PSMAD levels after 7 hrs; type: functional, organism-based

SMILES | Stability [1] | Stability [2] | Stability [3] | IC50 [4] | solubility [5] | IC50 (TGF-beta receptor type-2) | Activity (Mus musculus)
CC(=O)Nc1cc(Nc2nc(-c3cccc(C(F)(F)F)n3)nn3cccc23)c(F)cn1 | 68% | 66% | 78% | – | – | – | –
Fc1cnccc1Nc1nc(-c2ccccn2)nn2cccc12 | 54% | 19% | 54% | 500 nM | – | – | –
N[C@H]1CCN(Cc2ccn3nc(-c4ccccn4)nc(Nc4ccncc4F)c23)C[C@@H]1O | 90% | 82% | 85% | 390 nM | – | – | –
N[C@@H]1CCN(Cc2ccn3nc(-c4ccccn4)nc(Nc4ccncc4F)c23)C[C@H]1O | 92% | 100% | 93% | 310 nM | – | – | –
COc1cccc(-c2nc(Nc3ccncc3)c3cccn3n2)n1 | 36% | 2% | 12% | 3900 nM | – | – | –
Cc1cccc(-c2nc(Nc3ccnc4ccccc34)c3cccn3n2)n1 | – | – | – | – | Insoluble | – | –
Cc1cccc(-c2nc(Nc3c(F)cncc3F)c3cccn3n2)n1 | 39% | 7% | 15% | 1200 nM | – | – | –
c1ccc(-c2nc(Nc3ccncc3)c3cccn3n2)nc1 | 33% | 1% | 33% | 350 nM | – | – | –
c1ccc(-c2nn3c(c2-c2ccnc4cc(OCCN5CCOCC5)ccc24)CCC3)nc1 | 46% | 36% | 58% | 750 nM | – | 190 nM | –
Cc1cccc(-c2nc(Nc3ccncc3C(=O)NC(C)C)c3cccn3n2)n1 | 67% | 26% | 65% | > 10000 nM | – | – | –
O=C(CN1CCN(CCO)CC1)Nc1cc(Nc2nc(-c3cccc(C(F)(F)F)n3)nn3cccc23)ccn1 | – | 77% | 70% | 220 nM | – | – | –
Cc1cccc(-c2nn3c(c2-c2ccnc4ccc(C(N)=O)cc24)CCC3)n1 [GALUNISERTIB] | – | – | – | – | – | 1300 nM | –
FC(F)(F)c1cccc(-c2nc(Nc3ccncc3)c3cccn3n2)n1 | 48% | 13% | 24% | 710 nM | – | – | –

The next lines start with results.

Stability [1] | Stability [2] | Stability [3] | IC50 [4] | solubility [5] | IC50 (TGF-beta receptor type-2) | SMILES | Activity (Mus musculus)
35% | 6% | 11% | 180 nM | – | – | Cc1cccc(-c2nc(Nc3ccncc3F)c3cccn3n2)n1 | –
80% | 27% | 81% | 43 nM | – | – | CC(=O)Nc1cc(Nc2nc(-c3cccc(C(F)(F)F)n3)nc3[nH]ccc23)ccn1 | –
– | 28% | 36% | 47 nM | – | – | Fc1cnccc1Nc1nc(-c2cccc(C(F)(F)F)n2)nc2[nH]ccc12 | –
35% | 49% | 75% | 180 nM | – | – | CC(=O)Nc1cc(Nc2nc(-c3cccc(C(F)(F)F)n3)nn3cccc23)ccn1 | Dose-dependent effect
77% | 59% | 85% | 130 nM | – | – | CC(=O)Nc1cc(Nc2nc(-c3cccc(C(F)(F)F)n3)nc3[nH]cnc23)ccn1 | –
72% | 48% | 86% | 76 nM | – | – | N[C@H]1CC[C@@H](NCc2ccn3nc(-c4ccccn4)nc(Nc4ccncc4F)c23)CC1 | –
28% | 1% | 11% | 99 nM | Soluble | – | Cc1cccc(-c2nc(Nc3ccncc3)c3cccn3n2)n1 | –
47% | 4% | 38% | 150 nM | – | – | Cc1cccc(-c2nc(Nc3ccncc3F)c3nc[nH]c3n2)n1 | –
38% | 2% | 25% | 24 nM | – | – | Cc1cccc(-c2nc(Nc3ccncc3F)c3cc[nH]c3n2)n1 | –
